From patent US12171761B2, “Vilazodone inclusion complexes, compositions and preparation thereof” (Sunshine Lake Pharma Co., Ltd., priority 2016, dated 2024)

Assay: Solubility of vilazodone under different physiological pH conditions
Assay type: physicochemical
Experimental: The inventors discovered that a main cause of the difference in vilazodone bioavailability between fasted and fed conditions is the significant difference in the solubility of vilazodone under different physiological pH conditions. Vilazodone is mainly absorbed in the small intestine where the physiological pH is about 6.8, and the solubility of vilazodone under such a pH is very low. Thus the amount and rate of vilazodone that is dissolved in the stomach will affect its absorption in the small intestine. […] However, in a 0.1 N HCl solution (simulated stomach fasted conditions), the solubility of vilazodone is poor, resulting in a significant reduction in bioavailability.

solubility of vilazodone (0.1 N HCl solution (simulated stomach fasted conditions)): poor | solubility of vilazodone (pH 3.1 buffer (simulated stomach fed conditions)): dissolves well | solubility of vilazodone (physiological pH about 6.8 (small intestine)): very low
Structure (SMILES): N#Cc1ccc2[nH]cc(CCCCN3CCN(c4ccc5oc(C(N)=O)cc5c4)CC3)c2c1 [Vilazodone, 5-(4-[4-(5-cyano-1H-indol-3-yl)butyl]-1-piperazinyl)-2-benzofuran-2-carboxamide]
